The values below come from US20260000655A1, “PHARMACEUTICAL COMPOSITION FOR USE IN PREVENTION OR TREATMENT OF LIFESTYLE-RELATED DISEASE” (priority 2022, published 2026).

Experiment [1] has as its system adenosine monophosphate-activated protein kinase (AMPK). Kind of experiment: Activation of AMPK (p-AMPK/AMPK, Western blotting) in adipocyte model 3T3-L1. It counts as cell-based, mouse. As to conditions: 3T3-L1 adipocytes; HPH-15 at 1/200th the concentration of metformin (2 mM); 24 hours. From the text: The tissues involved in glucose uptake and glucose metabolism are mainly the muscle, the liver, and the fat. Thus, using a cell model of each tissue, the relationship between HPH-15 and activation of adenosine monophosphate-activated protein kinase (AMPK) was examined. Note that AMPK is known as a therapeutic target for diabetes. AMPK acts as an energy sensor, and when it detects a decrease in ATP serving as an intracellular energy source, it suppresses the synthesis of glucose, fats, and proteins and produces ATP. Exercise therapy for diabetes is based on this mechanism. Further, AMPK has been drawing attention as a factor that improves insulin resistance.
As a muscle cell model to be used, rat myoblast cell line L6-GLUT4myc (myoblasts expressing myc-tagged GLUT4) was cultured in a minimal essential medium a-MEM (10% FBS) and differentiated into myotubes. Differentiation into myotubes was performed by culturing L6-GLUT4 cells in a-MEM (10% FBS) and then changing the medium to a-MEM (2% FBS), followed by culturing for 6 days. Human HepG2 cell line was used as a liver cell model. As an adipocyte model to be used, mouse 3T3-L1 preadipocyte cell line was differentiated into adipocytes. Differentiation into adipocytes was performed as follows. […]
Next, bands of AMPK and p-AMPK were quantified using ImageJ to determine a ratio of activated AMPK relative to AMPK (p-AMPK/AMPK).
A general note: In western blotting, separated proteins are transferred to a membrane and probed.

The test system of a further experiment is herpes. As to conditions: Non-Patent Literature 2; cited from earlier work.

The structures appear in SMILES notation.

`CC(C)(C)SCCNC(=S)c1cccc(C(=S)NCCSC(C)(C)C)n1` [HPH-15]: the “AMPK activation (p-AMPK/AMPK) compared to when metformin was used” value in experiment [1] is listed as “approximately 170%”. Moreover, the anti-herpes activity entry with herpes is given as “has anti-herpes activity”.
